What was measured:
ABUTH [1] = experiment: Herbicidal pre-emergence action (Table A1); format: in vivo, Abutilon theophrasti; conditions: application rate 1280 g/ha; visual grading after ca. 3 weeks vs untreated controls (100% = plants have died off, 0% = as control plants)
Procedure, shortened: (§1)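 Pots: sandy loam. Sowing: one mono- and one dicot weed species together per pot. Seeds covered with soil.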

ECHCG [2] = experiment: Herbicidal pre-emergence action (Table A2); format: in vivo, Echinochloa crus-galli; conditions: application rate 320 g/ha; visual grading after ca. 3 weeks
Procedure, shortened: as §1

LOLRI [3] = experiment: Herbicidal pre-emergence action (Table A3); format: in vivo, Lolium rigidum; conditions: application rate 320 g/ha; visual grading after ca. 3 weeks
Procedure, shortened: as §1

MATIN [4] = experiment: Herbicidal pre-emergence action (Table A4); format: in vivo, Matricaria inodora; conditions: visual grading after ca. 3 weeks
Procedure, shortened: as §1

SETVI [5] = experiment: Herbicidal pre-emergence action (Table A5); format: in vivo, Setaria viridis; conditions: visual grading after ca. 3 weeks
Procedure, shortened: as §1

STEME = experiment: Herbicidal pre-emergence action (Table A6); format: in vivo, Stellaria media; conditions: application rate 320 g/ha; visual grading after ca. 3 weeks
Procedure, shortened: as §1

POAAN = experiment: Herbicidal pre-emergence action (Table A7); format: in vivo, Poa annua; conditions: application rate 320 g/ha; visual grading after ca. 3 weeks
Procedure, shortened: as §1

AMARE = experiment: Herbicidal pre-emergence action (Table A8); format: in vivo, Amaranthus retroflexus; conditions: application rate 1280 g/ha; visual grading after ca. 3 weeks vs untreated controls (100% = plants have died off, 0% = as control plants)
Procedure, shortened: as §1

ALOMY [6] = experiment: Herbicidal pre-emergence action (Table A9); format: in vivo, Alopecurus myosuroides; conditions: application rate 1280 g/ha; visual grading after ca. 3 weeks
Procedure, shortened: as §1

KCHSC [7] = experiment: Herbicidal pre-emergence action (Table A10); format: in vivo, Kochia scoparia; conditions: visual grading after ca. 3 weeks
Procedure, shortened: as §1

VERPE [8] = experiment: Herbicidal pre-emergence action (Table A11); format: in vivo, Veronica persica; conditions: application rate 1280 g/ha; visual grading after ca. 3 weeks
Procedure, shortened: as §1

DIGSA [9] = experiment: Herbicidal pre-emergence action (Table A12); format: in vivo, Digitaria sanguinalis; conditions: application rate 320 g/ha; visual grading after ca. 3 weeks
Procedure, shortened: as §1

ABUTH [10] = experiment: Herbicidal post-emergence action (Table B1); format: in vivo, Abutilon theophrasti; conditions: application rate 1280 g/ha; treated at one-leaf stage; rated visually after about 3 weeks vs untreated controls (100% = plants have died, 0% = like control plants)
Procedure, shortened: (§2)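 Visual rating of activity versus untreated plants about 3 weeks after treatment: 0% means no difference from controls, 100% means complete kill. Test weeds were raised from seed in sandy loam under controlled greenhouse conditions and sprayed at the one-leaf stage.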

ECHCG [11] = experiment: Herbicidal post-emergence action (Table B3); format: in vivo, Echinochloa crus-galli; conditions: application rate 1280 g/ha; rated visually after about 3 weeks
Procedure, shortened: as §2

KCHSC [12] = experiment: Herbicidal post-emergence action (Table B4); format: in vivo, Kochia scoparia; conditions: application rate 1280 g/ha; rated visually after about 3 weeks
Experimental: (§3) Seeds of mono- and dicotyledonous weed plants were placed in plastic pots in sandy loam soil (doubly sown with in each case one species of mono- or dicotyledonous weed plants per pot), covered with soil and cultivated in a greenhouse under controlled growth conditions. 2 to 3 weeks after sowing, the test plants were treated at the one-leaf stage. […] After the test plants had been kept in the greenhouse under optimum growth conditions for about 3 weeks, the activity of the preparations was rated visually in comparison to untreated controls. For example, 100% activity = the plants have died, 0% activity = like control plants.

LOLRI [13] = experiment: Herbicidal post-emergence action (Table B5); format: in vivo, Lolium rigidum; conditions: application rate 1280 g/ha; rated visually after about 3 weeks
Procedure, shortened: as §2

MATIN [14] = experiment: Herbicidal post-emergence action (Table B6); format: in vivo, Matricaria inodora; conditions: application rate 1280 g/ha; rated visually after about 3 weeks
Procedure, shortened: as §2

SETVI [15] = experiment: Herbicidal post-emergence action (Table B8); format: in vivo, Setaria viridis; conditions: application rate 1280 g/ha
Procedure, shortened: as §2

VERPE [16] = experiment: Herbicidal post-emergence action (Table B10); format: in vivo, Veronica persica; conditions: application rate 1280 g/ha
Procedure, shortened: as §2

DIGSA [17] = experiment: Herbicidal post-emergence action (Table B12); format: in vivo, Digitaria sanguinalis; conditions: application rate 1280 g/ha
Experimental: as §3

ABUTH [18] = experiment: Herbicidal pre-emergence action, section C (Table C1); format: in vivo, Abutilon theophrasti; conditions: application rate 320 g/ha; visual grading after ca. 3 weeks
Description: (§5) Seeds of mono- and dicotyledonous weed plants and crop plants were sown, in plastic or organic planting pots, in sandy loam and covered with soil. The compounds according to the invention, formulated in the form of wettable powders (WP) or as emulsifiable concentrates (EC), were applied to the surface of the covering soil as aqueous suspension or emulsion, with the addition of 0.5% of an additive, at an application rate of 600 1 of water/ha (converted). Following treatment, the pots were placed in a greenhouse and kept under optimum growth conditions for the test plants.

ALOMY [19] = experiment: Herbicidal pre-emergence action, section C (Table C2); format: in vivo, Alopecurus myosuroides; conditions: application rate 80 g/ha; visual grading after ca. 3 weeks
Description: as §5

DIGSA [20] = experiment: Herbicidal pre-emergence action, section C (Table C5); format: in vivo, Digitaria sanguinalis; conditions: application rate 80 g/ha; visual grading after ca. 3 weeks
ECHCG [21] = experiment: Herbicidal pre-emergence action, section C (Table C6); format: in vivo, Echinochloa crus-galli; conditions: application rate 80 g/ha; visual grading after ca. 3 weeks
LOLRI [22] = experiment: Herbicidal pre-emergence action, section C (Table C7); format: in vivo, Lolium rigidum; conditions: application rate 80 g/ha; visual grading after ca. 3 weeks
MATIN [23] = experiment: Herbicidal pre-emergence action, section C (Table C8); format: in vivo, Matricaria inodora; conditions: application rate 320 g/ha; visual grading after ca. 3 weeks
SETVI [24] = experiment: Herbicidal pre-emergence action, section C (Table C10); format: in vivo, Setaria viridis; conditions: application rate 80 g/ha; visual grading after ca. 3 weeks
VERPE [25] = experiment: Herbicidal pre-emergence action, section C (Table C11); format: in vivo, Veronica persica; conditions: application rate 80 g/ha; visual grading after ca. 3 weeks
Description: as §5

VIOTR = experiment: Herbicidal pre-emergence action, section C (Table C12); format: in vivo, Viola tricolor; conditions: application rate 80 g/ha; visual grading after ca. 3 weeks
ZEAMX [26] = experiment: Pre-emergence effects on crop plants (Table D1); format: in vivo, Zea mays; conditions: crop plant; application rate 80 g/ha; visual grading after ca. 3 weeks
ALOMY [27] = experiment: Herbicidal post-emergence action, section E (Table E2); format: in vivo, Alopecurus myosuroides; conditions: application rate 320 g/ha; assessed visually after ca. 3 weeks
Description: (§4) 2 to 3 weeks after sowing, the test plants were sprayed in the single-leaf stage.

ECHCG [28] = experiment: Herbicidal post-emergence action, section E (Table E5); format: in vivo, Echinochloa crus-galli; conditions: application rate 320 g/ha; assessed visually after ca. 3 weeks
Description: as §4

VERPE [29] = experiment: Herbicidal post-emergence action, section E (Table E9); format: in vivo, Veronica persica; conditions: application rate 320 g/ha; assessed visually after ca. 3 weeks
Description: as §4

ZEAMX [30] = experiment: Post-emergence effects on crop plants (Table F1); format: in vivo, Zea mays; conditions: application rate 80 g/ha, crop plant ZEAMX
Description: as §4

TRZAS = experiment: Post-emergence effects on crop plants (Table F2); format: in vivo, Triticum aestivum; conditions: application rate 320 g/ha, crop plant TRZAS
Description: as §4

ORYZA [31] = experiment: Post-emergence effects on crop plants (Table F3); format: in vivo, Oryza sativa; conditions: application rate 320 g/ha, crop plant ORYZA
Description: as §4

GLXMA = experiment: Post-emergence effects on crop plants (Table F4); format: in vivo, Glycine max; conditions: application rate 80 g/ha, crop plant GLXMA
Description: as §4

BRSNW = experiment: Post-emergence effects on crop plants (Table F5); format: in vivo, Brassica napus; conditions: application rate 320 g/ha, crop plant BRSNW
Description: as §4

ORYZA [32] = experiment: Pre-emergence effects on crop plants (Table D3); conditions: crop plant; application rate 80 g/ha; visual grading after ca. 3 weeks

O=C1N(Cc2cccc(F)c2F)CCC12CCCN(Cc1c(F)cccc1F)C2=O (racemic) [I-015]
80%: post-emergence activity against ALOMY (ALOMY [27]) | post-emergence activity against VERPE (VERPE [29])
100%: pre-emergence activity against ECHCG (ECHCG [2]) | pre-emergence activity against LOLRI (LOLRI [3]) | pre-emergence activity against SETVI (SETVI [5]; application rate 1280 g/ha) | pre-emergence activity against POAAN (POAAN) | pre-emergence activity against DIGSA (DIGSA [9]) | pre-emergence activity against ECHCG (ECHCG [21]) | pre-emergence activity against LOLRI (LOLRI [22])
20%: post-emergence activity against GLXMA (GLXMA)
90%: pre-emergence activity against ABUTH (ABUTH [1]) | pre-emergence activity against MATIN (MATIN [4]; application rate 320 g/ha) | pre-emergence activity against STEME (STEME) | pre-emergence activity against AMARE (AMARE) | pre-emergence activity against ALOMY (ALOMY [6]) | pre-emergence activity against KCHSC (KCHSC [7]; application rate 320 g/ha) | pre-emergence activity against VERPE (VERPE [8]) | post-emergence activity against ABUTH (ABUTH [10]) | post-emergence activity against ECHCG (ECHCG [11]) | post-emergence activity against KCHSC (KCHSC [12]) | post-emergence activity against LOLRI (LOLRI [13]) | post-emergence activity against MATIN (MATIN [14]) | post-emergence activity against SETVI (SETVI [15]) | post-emergence activity against VERPE (VERPE [16]) | post-emergence activity against DIGSA (DIGSA [17]) | pre-emergence activity against ABUTH (ABUTH [18]) | pre-emergence activity against ALOMY (ALOMY [19]) | pre-emergence activity against DIGSA (DIGSA [20]) | pre-emergence activity against MATIN (MATIN [23]) | pre-emergence activity against SETVI (SETVI [24]) | pre-emergence activity against VERPE (VERPE [25]) | pre-emergence activity against VIOTR (VIOTR) | post-emergence activity against ECHCG (ECHCG [28])
0%: pre-emergence activity against ZEAMX (ZEAMX [26]) | post-emergence activity against ZEAMX (ZEAMX [30]) | post-emergence activity against TRZAS (TRZAS) | post-emergence activity against ORYZA (ORYZA [31]) | post-emergence activity against BRSNW (BRSNW) | pre-emergence activity against ORYZA (ORYZA [32])

O=C1N(Cc2ccccc2)CCC12CCCN(Cc1c(F)cccc1F)C2=O (racemic) [I-089]
90%: pre-emergence activity against MATIN (MATIN [4]; application rate 1280 g/ha) | pre-emergence activity against STEME (STEME) | pre-emergence activity against KCHSC (KCHSC [7]; application rate 1280 g/ha) | pre-emergence activity against DIGSA (DIGSA [9]) | post-emergence activity against DIGSA (DIGSA [17])
100%: pre-emergence activity against ECHCG (ECHCG [2]) | pre-emergence activity against LOLRI (LOLRI [3]) | pre-emergence activity against SETVI (SETVI [5]; application rate 320 g/ha) | pre-emergence activity against POAAN (POAAN)

— patent EP4273147A1, “SUBSTITUTED SPIROLACTAMS, SALTS THEREOF AND THEIR USE AS HERBICIDALLY ACTIVE SUBSTANCES” (Bayer Aktiengesellschaft, priority 2022, dated 2023)
